# Data taken from patent US7193033B2, “Peptide having appetite stimulating activity” (Takeda Pharmaceutical Company Limited, priority 2001, dated 2007).
# Ends that are not written are not given here.
# Tests used:
# GPR8 [1] = molecular target: T1, GPR8 (Homo sapiens, UniProt P48146); experiment: Receptor binding test using [125I-Tyr10]-hGPR8L (1–23) and GPR8-expressed CHO cell membrane fraction; conditions: inhibition of [125I-Tyr10]-hGPR8L (1–23) binding; membrane fraction 5 μg/ml
# T1 construct: expressed in transfected cells
# Experimental: Receptor binding test was carried out using [^125I]-labeled hGPR8L (1–23) prepared as described in EXAMPLE 42 and the cell membrane fraction prepared from GPR8-expressed CHO cells prepared in a similar manner to the procedures described in EXAMPLE 6.
# The cell membrane fraction prepared from human GPR8-expressed CHO cells was diluted with an assay buffer (25 mM Tris-HCl, 5 mM EDTA (ethylenediaminetetraacetic acid), 0.05% CHAPS (3-[(3-cholamidopropyl)dimethlammonio]-1-propanesulfonate), 0.1% BSA (bovine serum albumin), 0.25 mM PMSF (phenylmethylsulfonyl fluoride), 1 μg/ml pepstatin, 20 μg/ml leupeptin, pH 7.4) in various concentrations. Subsequently, 200 μl each of the dilution was dispensed in a polypropylene tst tube (Falcon 2053). […] After filtration, the residual radioactivity remained on the filter paper was measured with a γ-counter, and the specific binding (SB) was estimated by subtracting the non-specific binding from the total binding. […]
# The receptor binding activity of the human and porcine homologue derivatives of the GPR8 ligand peptide, which synthesis was described in the specification, was determined s described in EXAMPLE 43, using the GPR8-expressed cell membrane fraction and [^125I-Tyr^10]-hGPR8L (1–23). […]
# GPR8 [2] = molecular target: T1, GPR8; experiment: GTPγ S binding promoting activity on GPR8-expressed CHO cell membrane fraction; type: biochemical
# Experimental: The [^35S]-guanosine 5′-(γ-thio)triphosphate binding promoting activity on a GPR8-expressed CHO cell membrane fraction was assayed by the following procedures. First, preparation of the membrane fraction is described. To 1×10^8 of CHO/GPR8 cells was added 10 ml of a homogenate buffer (10 mM NaHCO3, 5 mM EDTA, 0.5 mM PMSF, 1 μg/ml pepstatin, 4 μg/ml E64, 20 μg/ml leupeptin). The mixture was homogenized by using Polytron (12,000 rpm, 1 min.). The cell homogenate was subjected to centrifugation (1,000 g, 15 mins.) to obtain the supernatant. Next, the supernatant was subjected to ultracentrifugation (Beckman type 30 rotor, 30,000 rpm, 1 hour). The resulting precipitate was used as GPR8-expressed CHO cell membrane fraction.
# The GTPγ S binding activity was assayed as follows. The GPR8-expressed CHO cell membrane fraction was diluted with a membrane dilution buffer (50 mM Tris-hydrochloride buffer (pH 7.4), 5 mM MgCl2, 150 mM NaCl, 1 μM GDP) to prepare a cell membrane fraction solution for assay having a protein level of […]. To 200 μl of the cell membrane fraction solution for assay were added 2 μl of 51.5 nM [^35S]-guanosine 5′-(γ-thio)triphosphate (NEN Co.) and a sample fluid. […] After washing twice with 1.5 ml of a wash buffer (50 mM Tris-hydrochloride buffer (pH 7.4), 5 mM MgCl2, 1 mM EDTA, 0.1% BSA), radioactivity of the filter was measured with a liquid scintillation counter. […]
# T1 sequence (P48146 whole entry): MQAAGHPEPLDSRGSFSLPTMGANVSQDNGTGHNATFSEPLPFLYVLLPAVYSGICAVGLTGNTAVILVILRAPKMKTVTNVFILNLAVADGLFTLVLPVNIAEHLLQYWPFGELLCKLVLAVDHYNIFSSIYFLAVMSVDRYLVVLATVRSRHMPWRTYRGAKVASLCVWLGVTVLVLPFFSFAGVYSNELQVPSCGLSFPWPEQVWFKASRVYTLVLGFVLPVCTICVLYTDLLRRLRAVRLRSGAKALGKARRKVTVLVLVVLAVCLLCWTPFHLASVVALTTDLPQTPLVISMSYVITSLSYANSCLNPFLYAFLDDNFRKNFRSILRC
Molecule,IC50 (GPR8 [1]),EC50 (GPR8 [2])
CSCC[C@H](NC(=O)[C@H](CC(C)C)NC(=O)[C@H](CC(C)C)NC(=O)CNC(=O)[C@H](C)NC(=O)[C@H](C)NC(=O)[C@H](CCCNC(=N)N)NC(=O)CNC(=O)[C@@H](NC(=O)[C@@H](NC(=O)[C@H](Cc1c[nH]cn1)NC(=O)[C@H](Cc1ccc(O)cc1)NC(=O)[C@H](CCCNC(=N)N)NC(=O)[C@@H]1CCCN1C(=O)[C@H](CO)NC(=O)[C@H](C)NC(=O)[C@@H](NC(=O)[C@H](Cc1c[nH]cn1)NC(=O)[C@H](CCCCN)NC(=O)[C@H](Cc1ccc(O)cc1)NC(=O)[C@H](Cc1c[nH]c2ccccc12)NC(=O)OCC1c2ccccc2-c2ccccc21)C(C)C)[C@@H](C)O)C(C)C)C(=O)NCC(=O)N[C@@H](CC(C)C)C(=O)O [Fmoc-hGPR8L(1–23)],0.2 nM,
H-WYKHVASPRYHTVGRAAGLL [hGPR8L(1–20)],0.2 nM,
"H-WYKHVASPRYHTVGRAAG [hGPR8L(1–18), Trp-Tyr-Lys-His-Val-Ala-Ser-Pro-Arg-Tyr-His-Thr-Val-Gly-Arg-Ala-Ala-Gly]",,> 10000 nM
